Results from patent US20230150953A1, “SUBSTITUTED ISOPHTHALIC ACID DIAMIDES” (Bayer Aktiengesellschaft, priority 2020, published 2023).

Assays:
Type in all cases: in vivo
[1] = test system: ABUTH Abutilon theophrasti; experiment: Pre-emergence herbicidal action against harmful plants; settings: scored visually after 3 weeks vs untreated controls
Excerpt: (§1) The abbreviations used for the harmful plants mean: • ABUTH Abutilon theophrasti ALOMY Alopecurus myosuroides • AVEFA Avena fatua AMARE Amaranthus retroflexus • CYPES Cyperus esculentus DIGSA Digitaria sanguinalis • ECHCG Echinochloa crus-galli HORMU Hordeum murinum • LOLMU Lolium multiflorum LOLRI Lolium rigidum • MATIN Matricaria inodora PHBPU Pharbitis purpurea • POLCO Polygonum convolvulus SETVI Setaria viridis • STEME Stellaria media VERPE Veronica persica • VIOTR Viola tricolor 1. Pre-Emergence Herbicidal Action Against Harmful Plants Seeds of monocotyledonous and dicotyledonous weed plants and crop plants are laid out in sandy loam soil in wood-fiber pots and covered with soil. The compounds of the invention, formulated in the form of wettable powders (WP) or as emulsion concentrates (EC), are then applied to the surface of the covering soil in the form of an aqueous suspension or emulsion at a water application rate equivalent to 600 to 800 l/ha, with addition of 0.2% wetting agent. After the treatment, the pots are placed in a greenhouse and kept under good growth conditions for the trial plants. The damage to the test plants is scored visually after a test period of 3 weeks by comparison with untreated controls (herbicidal activity in percent (%): 100% activity=the plants have died, 0% activity=like control plants). […] The tables below illustrate, in an illustrative manner, the post-emergence herbicidal action of the compounds of the invention, the herbicidal activity being stated in percent.

[2] = test system: ALOMY Alopecurus myosuroides; experiment: as above; settings: scored visually after 3 weeks vs untreated controls
Excerpt: as §1

[3] = test system: AMARE Amaranthus retroflexus; experiment: as above; settings: scored visually after 3 weeks vs untreated controls
Excerpt: as §1

[4] = test system: DIGSA Digitaria sanguinalis; experiment: as above; settings: scored visually after 3 weeks vs untreated controls
Excerpt: as §1

[5] = test system: MATIN Matricaria inodora; experiment: as above; settings: scored visually after 3 weeks vs untreated controls
Excerpt: as §1

[6] = test system: SETVI Setaria viridis; experiment: as above; settings: scored visually after 3 weeks vs untreated controls
Excerpt: as §1

[7] = test system: AMARE Amaranthus retroflexus; experiment: Post-emergence herbicidal action against harmful plants; settings: one-leaf stage, assessed visually after about 3 weeks vs untreated controls
Excerpt: (§2) The abbreviations used for the harmful plants mean: • ABUTH Abutilon theophrasti ALOMY Alopecurus myosuroides • AVEFA Avena fatua AMARE Amaranthus retroflexus • CYPES Cyperus esculentus DIGSA Digitaria sanguinalis • ECHCG Echinochloa crus-galli HORMU Hordeum murinum • LOLMU Lolium multiflorum LOLRI Lolium rigidum • MATIN Matricaria inodora PHBPU Pharbitis purpurea • POLCO Polygonum convolvulus SETVI Setaria viridis • STEME Stellaria media VERPE Veronica persica • VIOTR Viola tricolor 2. Post-Emergence Herbicidal Action Against Harmful Plants Seeds of monocotyledonous and dicotyledonous weed and crop plants are laid out in sandy loam soil in wood-fiber pots, covered with soil and cultivated in a greenhouse under good growth conditions. 2 to 3 weeks after sowing, the test plants are treated at the one-leaf stage. The compounds of the invention, formulated in the form of wettable powders (WP) or as emulsion concentrates (EC), are then sprayed onto the green parts of the plants in the form of an aqueous suspension or emulsion at a water application rate equivalent to 600 to 800 l/ha, with addition of 0.2% wetting agent. After the test plants have been left to stand in the greenhouse under optimal growth conditions for about 3 weeks, the action of the preparations is assessed visually in comparison to untreated controls (herbicidal action in percent (%): 100% activity=the plants have died, 0% activity=like control plants). […] The tables below illustrate, in an illustrative manner, the post-emergence herbicidal action of the compounds of the invention, the herbicidal activity being stated in percent.

[8] = test system: ECHCG Echinochloa crus-galli; experiment: as above; settings: one-leaf stage, assessed visually after about 3 weeks vs untreated controls
Excerpt: as §2

[9] = test system: PHBPU Pharbitis purpurea; experiment: as above; settings: one-leaf stage, assessed visually after about 3 weeks vs untreated controls
Excerpt: as §2

[10] = test system: SETVI Setaria viridis; experiment: as above; settings: one-leaf stage, assessed visually after about 3 weeks vs untreated controls
Excerpt: as §2

[11] = test system: ECHCG Echinochloa crus-galli; experiment: Pre-emergence herbicidal action against harmful plants; settings: scored visually after 3 weeks vs untreated controls
Excerpt: as §1

[12] = test system: MATIN Matricaria inodora; experiment: Post-emergence herbicidal action against harmful plants; settings: one-leaf stage, assessed visually after about 3 weeks vs untreated controls
Excerpt: as §2

[13] = test system: POLCO Polygonum convolvulus; experiment: as above; settings: one-leaf stage, assessed visually after about 3 weeks vs untreated controls
Excerpt: as §2

[14] = test system: ABUTH Abutilon theophrasti; experiment: as above; settings: one-leaf stage, assessed visually after about 3 weeks vs untreated controls
Excerpt: as §2

[15] = test system: POLCO Polygonum convolvulus; experiment: Pre-emergence herbicidal action against harmful plants; settings: 80 g/ha, scored visually after 3 weeks vs untreated controls
Excerpt: as §1

[16] = test system: VERPE Veronica persica; experiment: as above; settings: scored visually after 3 weeks vs untreated controls
Excerpt: as §1

[17] = test system: ALOMY Alopecurus myosuroides; experiment: Post-emergence herbicidal action against harmful plants; settings: one-leaf stage, assessed visually after about 3 weeks vs untreated controls
Excerpt: as §2

[18] = test system: AVEFA Avena fatua; experiment: Pre-emergence herbicidal action against harmful plants; settings: scored visually after 3 weeks vs untreated controls
Excerpt: as §1

[19] = test system: LOLRI Lolium rigidum; experiment: as above; settings: scored visually after 3 weeks vs untreated controls
Excerpt: as §1

[20] = test system: PHBPU Pharbitis purpurea; experiment: as above; settings: 80 g/ha, scored visually after 3 weeks vs untreated controls
Excerpt: as §1

[21] = test system: DIGSA Digitaria sanguinalis; experiment: Post-emergence herbicidal action against harmful plants; settings: one-leaf stage, assessed visually after about 3 weeks vs untreated controls
Excerpt: as §2

SMILES | Pre-emergence action at 80 g/ha against ABUTH in % [1] [%] | Pre-emergence action at 80 g/ha against ALOMY in % [2] [%] | Pre-emergence action at 20 g/ha against AMARE in % [3] [%] | Pre-emergence action at 80 g/ha against AMARE in % [3] [%] | Pre-emergence action at 80 g/ha against DIGSA in % [4] [%] | Pre-emergence action at 20 g/ha against MATIN in % [5] [%] | Pre-emergence action at 80 g/ha against MATIN in % [5] [%] | Pre-emergence action at 80 g/ha against SETVI in % [6] [%] | Post-emergence action at 5 g/ha against AMARE in % [7] [%] | Post-emergence action at 20 g/ha against AMARE in % [7] [%] | Post-emergence action at 20 g/ha against ECHCG in % [8] [%] | Pre-emergence action at 20 g/ha against ABUTH in % [1] [%] | Pre-emergence action at 20 g/ha against DIGSA in % [4] [%] | Pre-emergence action at 80 g/ha against ECHCG in % [11] [%] | Post-emergence action at 20 g/ha against MATIN in % [12] [%] | Pre-emergence action at 80 g/ha against POLCO in % [15] [%] | Post-emergence action at 20 g/ha against ALOMY in % [17] [%] | further results
CNC(=O)c1c(C(F)(F)F)cc(F)c(C(=O)Nc2nnnn2C)c1C [Example 1-92] | 100 | 80 | 90 | 100 | 100 | 90 | 90 | 100 | 80 | 90 | 80 | – | – | – | – | – | – | Pre-emergence action at 20 g/ha against SETVI in % ([6]; 20 g/ha): 80%; Post-emergence action at 20 g/ha against PHBPU in % [9]: 80%; Post-emergence action at 20 g/ha against SETVI in % [10]: 80%
Cc1c(C(=O)Nc2nnnn2C)c(F)cc(C(F)(F)F)c1C(=O)N(C)C1CC1 [Example 1-97] | 100 | 80 | 100 | 100 | 100 | 90 | 100 | 80 | – | – | – | 100 | 80 | 90 | 80 | – | – | Post-emergence action at 20 g/ha against POLCO in % [13]: 100%
CNC(=O)c1c(C(F)(F)F)cc(F)c(C(=O)Nc2nnnn2C)c1Cl [Example 1-180] | 100 | – | 100 | 100 | 80 | – | 100 | – | 80 | 90 | – | – | 80 | – | – | – | – | Post-emergence action at 20 g/ha against ABUTH in % [14]: 90%
CCNC(=O)c1c(C(F)(F)F)cc(F)c(C(=O)Nc2nnnn2C)c1Cl [Example 1-181] | 100 | – | 100 | 100 | 80 | – | 100 | – | 90 | 90 | – | – | – | – | – | – | – | Post-emergence action at 20 g/ha against ABUTH in % [14]: 90%
Cn1nnnc1NC(=O)c1c(F)cc(C(F)(F)F)c(C(=O)NC2CC2)c1Cl [Example 1-182] | 100 | 80 | 100 | 100 | 100 | – | 100 | – | 80 | 100 | 80 | – | 90 | – | – | 90 | 80 | Pre-emergence action at 80 g/ha against VERPE in % [16]: 100%
Cc1c(C(=O)Nc2nnnn2C)c(F)cc(C(F)(F)F)c1C(=O)NCC1CC1 [Example 1-384] | 100 | 80 | 100 | 100 | 100 | – | 80 | 90 | 80 | 90 | 80 | – | 100 | 100 | – | 90 | 80 | Pre-emergence action at 80 g/ha against AVEFA in % [18]: 80%; Post-emergence action at 5 g/ha against ECHCG in % ([8]; 5 g/ha): 80%
CCn1nnnc1NC(=O)c1cc(Cl)c(C(F)(F)F)c(C(=O)NC2CC2)c1C [Example 2-85] | 100 | 90 | 100 | 100 | 100 | 90 | 100 | 100 | 80 | 90 | – | 80 | 80 | 80 | 80 | 80 | 80 | Pre-emergence action at 20 g/ha against ALOMY in % ([2]; 20 g/ha): 80%; Pre-emergence action at 80 g/ha against AVEFA in % [18]: 80%; Pre-emergence action at 80 g/ha against LOLRI in % [19]: 80%; Pre-emergence action at 80 g/ha against PHBPU in % [20]: 90%; Post-emergence action at 20 g/ha against DIGSA in % [21]: 90%; Post-emergence action at 5 g/ha against PHBPU in % ([9]; 5 g/ha): 80%; Post-emergence action at 20 g/ha against PHBPU in % [9]: 90%; Post-emergence action at 20 g/ha against POLCO in % [13]: 80%
CCn1nnnc1NC(=O)c1c(F)cc(C(F)(F)F)c(C(=O)N(C)C2CC2)c1C [Example 2-97] | 100 | – | 100 | 100 | 100 | 90 | 100 | – | – | – | – | 100 | 90 | 80 | 80 | – | – | Pre-emergence action at 20 g/ha against VERPE in % ([16]; 20 g/ha): 80%; Pre-emergence action at 80 g/ha against VERPE in % [16]: 80%
CCn1nnnc1NC(=O)c1c(F)cc(C(F)(F)F)c(C(=O)NCC(F)F)c1C [Example 2-385] | 100 | – | – | 100 | 100 | 80 | 90 | – | 80 | 90 | – | – | 90 | 80 | – | 90 | – | Post-emergence action at 20 g/ha against SETVI in % [10]: 80%
